Article PMC1976805, “Preclinical pharmacokinetics of benznidazole” (British Journal of Cancer, 1984)
“And” between values parts separate entries of the source, which are not always exact repeats. Equal values may be shown once. Read-outs that look alike come from different tables or passages of the source.

Tests used:
[1] = Whole plasma pharmacokinetics in dogs (HPLC); type: in vivo, dog
From the text: (§1) Br. J. Cancer (1984), 50, 291-303 Preclinical pharmacokinetics of benznidazole P. Workman', R.A.S. White2, M.I. Walton', L.N. Owen2* & P.R. Twentyman' 1MRC Clinical Oncology and Radiotherapeutics Unit, MRC Centre, Hills Road, Cambridge CB2 2QH, and 2Department of Clinical Veterinary Medicine, University of Cambridge, Madingley Road, Cambridge CB3 OES, UK. […] We have investigated the detailed pharmacokinetics of benznidazole in mice, dogs and sheep to provide a data base for the estimation of doses required for chemosensitization in man. Pharmacokinetic behaviour was linear except at high doses in mice. Absorption was fairly rapid and bioavailability was complete following both i.p. administration in mice and oral administration in dogs. Elimination t4 values were longer than for MISO, being 90 min in mice, 4-5 h in sheep and 9-11 h in dogs. At doses giving linear kinetics, peak whole plasma concentrations per administered mgkg-1 were 0.75 jigml-1 for the i.p. route in mice and 1.8jugmlP' for the oral route in dogs. Though between 39 and 59% of plasma benznidazole was bound to protein, tissue penetration was generally good. Tissue/whole plasma ratios ranged from 59-99% for transplantable mouse tumours and from 14-70% for spontaneous dog neoplasms. Nervous tissue penetration was similar to that in tumours: brain/whole plasma ratios averaged between 61 and 76% in mice and 42% in dogs, while peripheral nerve/whole plasma ratios in dogs averaged 74%. Mean liver/whole plasma ratios were 42% and 71% in BALB/c and C3H/He mouse strains respectively. Only -5% of the administered dose was excreted unchanged in the urine, indicating the likelihood of extensive metabolism. […] Enhancement of CCNU response is likely to require circulating benznidazole concentrations of 10-30 pgml-1 and we predict that these will be obtained with oral doses of 6-20 mgkg- 1 in man. […] This enhancement, or chemosensitization, is usually greater than that seen in dose-limiting normal tissues, resulting in an improved therapeutic index. Because of the relatively high doses of MISO usually required for chemosensitization in mice (see above refs), and also because of its neurotoxicity in man (Dische et al., 1977), we have been interested in finding an improved chemosensitizer. […] The lipophilic ana- logue benznidazole (N-benzyl-(2-nitroimidazolyl) acetamide, Ro 07-1051; Radanil; Roche), the structure of which is shown in Figure 1, was selected for detailed study because of its ability to *Present address: Animal Health Trust, Small Animals Centre, Lanwades Park, Kennett, Newmarket, Suffolk CB8 7PN, UK. Correspondence: P. Workman. […] These findings have been confirmed independently by Siemann et al. (1983). Although benznidazole is used quite widely in South America to treat patients with the trypanosomal infection Chagas' disease or with mucotaneous Leishmaniasis (Barclay et al., 1978; Cerisola et al., 1978; Coura et al., 1978; Fava et al., 1978), apart from our preliminary studies (White et al., 1982) the only published data on its pharmaco- kinetics are for human plasma concentrations measured by polarography (Raaflub & Ziegler, 1979; Raaflub, 1980). Here we describe the pharmacokinetics of benznidazole in the mouse, sheep and dog, as determined by high-performance liquid chromatography (HPLC). […] The Macmillan Press Ltd., 1984 292 P. WORKMAN et al. particularly on plasma and tumour concentrations, have been used as a basis for the estimation of the benznidazole doses required in a Phase I trial of benznidazole plus CCNU, at present ongoing in our Unit. Materials and methods Animals and tumours Adult inbred male BALB/c mice were obtained from OLAC (Southern) Ltd. (Bicester, UK) and adult inbred C3H/He mice of both sexes from OLAC and our own breeding colony. Mice were housed in plastic cages on sawdust bedding made from soft white woods, and allowed laboratory chow and water ad lib. They were used at 20-35 g body wt.

[2] = Whole plasma pharmacokinetics in sheep (HPLC); type: in vivo; details: for half-life: male, Clun Forest/Border Leicester cross, sheep, plasma, iv
From the text: Br. J. Cancer (1984), 50, 291-303 Preclinical pharmacokinetics of benznidazole P. Workman', R.A.S. White2, M.I. Walton', L.N. Owen2* & P.R. Twentyman' 1MRC Clinical Oncology and Radiotherapeutics Unit, MRC Centre, Hills Road, Cambridge CB2 2QH, and 2Department of Clinical Veterinary Medicine, University of Cambridge, Madingley Road, Cambridge CB3 OES, UK. […] We have investigated the detailed pharmacokinetics of benznidazole in mice, dogs and sheep to provide a data base for the estimation of doses required for chemosensitization in man. Pharmacokinetic behaviour was linear except at high doses in mice. Absorption was fairly rapid and bioavailability was complete following both i.p. administration in mice and oral administration in dogs. Elimination t4 values were longer than for MISO, being 90 min in mice, 4-5 h in sheep and 9-11 h in dogs. At doses giving linear kinetics, peak whole plasma concentrations per administered mgkg-1 were 0.75 jigml-1 for the i.p. route in mice and 1.8jugmlP' for the oral route in dogs. Though between 39 and 59% of plasma benznidazole was bound to protein, tissue penetration was generally good. Tissue/whole plasma ratios ranged from 59-99% for transplantable mouse tumours and from 14-70% for spontaneous dog neoplasms. Nervous tissue penetration was similar to that in tumours: brain/whole plasma ratios averaged between 61 and 76% in mice and 42% in dogs, while peripheral nerve/whole plasma ratios in dogs averaged 74%. Mean liver/whole plasma ratios were 42% and 71% in BALB/c and C3H/He mouse strains respectively. Only -5% of the administered dose was excreted unchanged in the urine, indicating the likelihood of extensive metabolism. […] Enhancement of CCNU response is likely to require circulating benznidazole concentrations of 10-30 pgml-1 and we predict that these will be obtained with oral doses of 6-20 mgkg- 1 in man. […] This enhancement, or chemosensitization, is usually greater than that seen in dose-limiting normal tissues, resulting in an improved therapeutic index. Because of the relatively high doses of MISO usually required for chemosensitization in mice (see above refs), and also because of its neurotoxicity in man (Dische et al., 1977), we have been interested in finding an improved chemosensitizer. […] The lipophilic ana- logue benznidazole (N-benzyl-(2-nitroimidazolyl) acetamide, Ro 07-1051; Radanil; Roche), the structure of which is shown in Figure 1, was selected for detailed study because of its ability to *Present address: Animal Health Trust, Small Animals Centre, Lanwades Park, Kennett, Newmarket, Suffolk CB8 7PN, UK. Correspondence: P. Workman. […] These findings have been confirmed independently by Siemann et al. (1983). Although benznidazole is used quite widely in South America to treat patients with the trypanosomal infection Chagas' disease or with mucotaneous Leishmaniasis (Barclay et al., 1978; Cerisola et al., 1978; Coura et al., 1978; Fava et al., 1978), apart from our preliminary studies (White et al., 1982) the only published data on its pharmaco- kinetics are for human plasma concentrations measured by polarography (Raaflub & Ziegler, 1979; Raaflub, 1980). Here we describe the pharmacokinetics of benznidazole in the mouse, sheep and dog, as determined by high-performance liquid chromatography (HPLC). […]

[3] = Penetration into whole brain of BALB/c mice bearing EMT6 tumours; type: in vivo, mouse; details: for brain/whole plasma ratio (% ± s.e.) / brain/whole plasma ratio (s.e., n=5): 650 mg kg-1 i.p.; for tumour/brain ratio (% + s.e.): EMT6, 650 mg kg-1 i.p.; for brain/whole plasma ratio (s.e., n=5): experiment b; for Kp: male, BALB/c, mouse, whole brain / whole plasma
From the text: as §1

In the case of `O=C(Cn1ccnc1[N+](=O)[O-])NCc1ccccc1` [benznidazole, N-benzyl-(2-nitroimidazolyl) acetamide], the peak time ([1]; dog C, 5 mg kg-1 i.v.) was 0.083 h, the peak time ([1]; dog C, 12.5 mg kg-1 oral) was 1 h and the peak time ([1]; dog C, 25 mg kg-1 oral) was 5 h. The “peak whole plasma concentration” value ([1]; dog C, collie crossbred 28 kg, 5 mg kg-1 i.v.) was 12.7 µg/mL, the “peak whole plasma concentration” value ([1]; dog C, collie crossbred 28 kg, 12.5 mg kg-1 oral) was 26.5 µg/mL and the “peak whole plasma concentration” value ([1]; dog C, collie crossbred 28 kg, 25 mg kg-1 oral) was 38.9 µg/mL. It also gave a peak time ([1]; dog D, 5 mg kg-1 i.v.) of 0.083 h, a peak time ([1]; dog D, 12.5 mg kg-1 oral) of 12 h and a peak time ([1]; dog D, 25 mg kg-1 oral) of 3 h. The “peak whole plasma concentration” value ([1]; dog D, collie crossbred 20 kg, 5 mg kg-1 i.v.) was 12.4 µg/mL, the “peak whole plasma concentration” value ([1]; dog D, collie crossbred 20 kg, 12.5 mg kg-1 oral (slow, prolonged absorption)) was 13.1 µg/mL and the “peak whole plasma concentration” value ([1]; dog D, collie crossbred 20 kg, 25 mg kg-1 oral) was 46.5 µg/mL. For the same molecule, the “peak whole plasma concentration” value ([1]; dog E, beagle 9 kg, 50 mg kg-1 oral) was 59.8 µg/mL, the peak time ([1]; dog F, 50 mg kg-1 oral) was 3 h and the “peak whole plasma concentration” value ([1]; dog F, beagle 10 kg, 50 mg kg-1 oral) was 54.8 µg/mL. The Tmax ([1]; dog, plasma, po, dogs, discussion summary, read-out: time of peak concentrations after oral dosing) was 3 to 5 h, the “overall oral bioavailability (dose-normalised AUC0-∞ oral vs i.v.)” value ([1]; dogs C and D) was “about 130%” and the “peak concentrations readily achieved” value ([1]; dogs, oral doses of 25-50 mg kg-1) was 50 µg/mL. The “average peak whole plasma concentration” value ([1]; large crossbred dogs, 12.5 mg kg-1 oral) was 20 µg/mL, the “average peak whole plasma concentration” value ([1]; large crossbred dogs, 25 mg kg-1 oral) was 47 µg/mL and the “mean peak whole plasma concentration per administered mg kg-1” value ([1]; large crossbred dogs, oral route (s.e., n=6)) was 1.8 µg ml-1 and 1.77 + 0.17 µg ml-1. For the same molecule, the half-life ([2]; 4 mg/kg, sheep 1, 4 mg kg-1 i.v., read-out: elimination t1/2 (95% confidence limits) (converted)) was 312 min, the half-life ([2]; 4 mg/kg, sheep 2, 4 mg kg-1 i.v., read-out: elimination t1/2 (95% confidence limits) (converted)) was 228 min and the half-life ([2]; summary value, read-out: elimination t1/2) was 240 to 300 min. For the same molecule, the “peak whole plasma concentration” value ([2]; sheep 1, 4 mg kg-1 i.v.) was 3.6 µg/mL, the “peak whole plasma concentration” value ([2]; sheep 2, 4 mg kg-1 i.v.) was 2.5 µg/mL and the “brain/whole plasma ratio (% ± s.e.)” value ([3]; Exp 1 (a), n=16) was 61+5%. The “tumour/brain ratio (% + s.e.)” value ([3]; Exp 1 (a), n=16) was 120+33%, the “brain/whole plasma ratio (% ± s.e.)” value ([3]; Exp 2 (b), n=20) was 68+3% and the “tumour/brain ratio (% + s.e.)” value ([3]; Exp 2 (b), n=20) was 116+5%. For the same molecule, the “brain/whole plasma ratio (% ± s.e.)” value ([3]; Exp 3 (c), n=20) was 76+4%, the “tumour/brain ratio (% + s.e.)” value ([3]; Exp 3 (c), n=20) was 99+7% and the “brain/whole plasma ratio (s.e., n=5)” value ([3]; 45 min) was 56+3%. The “brain/whole plasma ratio (s.e., n=5)” value ([3]; 75 min) was 69+3%, the “brain/whole plasma ratio (s.e., n=5)” value ([3]; 105 min) was 71+5% and the “brain/whole plasma ratio (s.e., n=5)” value ([3]; 135 min) was 75 +5%. The Kp ([3]; mice, discussion comparison with MISO, read-out: brain/whole plasma ratio) was 0.68 and the Kp ([3]; read-out: brain/whole plasma ratios, range of averages) was 0.61 to 0.76.
